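Dose response: 5 concentrations. Exposure: 48 h. Format: 96-well plates. Endpoint: linear interpolation; highest concentration if not reached. TGI denotes the concentration required for complete inhibition of growth.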
Assays:
Assay in all cases: NCI tumour cell line growth inhibition, 48 h
[1] = tested on: SK-MEL-2 melanoma
[2] = tested on: CAKI-1 renal
[3] = tested on: HCT-15 colon
[4] = tested on: UACC-257 melanoma
[5] = tested on: NCI-H460 lung
[6] = tested on: EKVX NSCLC
[7] = tested on: MALME-3M melanoma
[8] = tested on: K-562 leukemia
[9] = tested on: SK-MEL-28 melanoma
[10] = tested on: A549 NSCLC
[11] = tested on: SF-295 CNS
[12] = tested on: RPMI-8226 leukemia
[13] = tested on: HOP-62 NSCLC
[14] = tested on: ACHN renal
[15] = tested on: HT29 colon
[16] = tested on: KM12 colon
[17] = tested on: HCC-2998 colon
[18] = tested on: HL-60(TB) leukemia
[19] = tested on: SN12C renal
[20] = tested on: OVCAR-3 ovarian
[21] = tested on: OVCAR-4 ovarian
[22] = tested on: CCRF-CEM leukemia
[23] = tested on: UO-31 renal
[24] = tested on: HS 578T breast
[25] = tested on: SW-620 colon
[26] = tested on: NCI/ADR-RES ovarian
[27] = tested on: T-47D breast
[28] = tested on: M14 melanoma
[29] = tested on: SR leukemia
[30] = tested on: MOLT-4 leukemia
[31] = tested on: MCF7 breast
[32] = tested on: SNB-75 CNS
[33] = tested on: U251 CNS
[34] = tested on: MDA-MB-231 breast
[35] = tested on: SK-OV-3 ovarian
[36] = tested on: UACC-62 melanoma
[37] = tested on: OVCAR-8 ovarian
[38] = tested on: NCI-H23 lung
[39] = tested on: TK-10 renal
[40] = tested on: COLO 205 colon
[41] = tested on: HCT-116 colon
[42] = tested on: SF-539 CNS
[43] = tested on: LOX IMVI melanoma
[44] = tested on: NCI-H522 lung
[45] = tested on: SNB-19 CNS
[46] = tested on: NCI-H226 lung
[47] = tested on: SF-268 CNS
[48] = tested on: 786-0 renal
[49] = tested on: BT-549 breast
[50] = tested on: DU-145 prostate
[51] = tested on: OVCAR-5 ovarian
[52] = tested on: IGROV1 ovarian
[53] = tested on: RXF 393 renal
[54] = tested on: PC-3 prostate
[55] = tested on: MDA-MB-435

O=C(CNC(=O)c1ccccc1)Oc1c(Cl)c(Cl)c(Cl)c(Cl)c1Cl
TGI [1]: 94.1 µM | TGI [2]: 54.9 µM | TGI [3]: > 100 µM | TGI [4]: 54.9 µM | TGI [5]: > 100 µM | TGI [6]: 48 µM | TGI [7]: 57.1 µM | TGI [8]: > 100 µM | TGI [9]: > 100 µM | TGI [10]: > 100 µM | TGI [11]: 79.9 µM | TGI [12]: 78.3 µM | TGI [13]: > 100 µM | TGI [14]: 65.1 µM | TGI [15]: > 100 µM | TGI [16]: 45.6 µM | TGI [17]: 60.6 µM | TGI [18]: 77.5 µM | TGI [19]: > 100 µM | TGI [20]: 53.3 µM | TGI [21]: > 100 µM | TGI [22]: > 100 µM | TGI [23]: 45.2 µM | TGI [24]: 67.6 µM | TGI [25]: 67.1 µM | TGI [26]: 82.5 µM | TGI [27]: > 100 µM | TGI [28]: > 100 µM | TGI [29]: > 100 µM | TGI [30]: > 100 µM | TGI [31]: > 100 µM | TGI [32]: > 100 µM | TGI [33]: > 100 µM | TGI [34]: 66.1 µM | TGI [35]: > 100 µM | TGI [36]: 53.8 µM | TGI [37]: 64 µM | TGI [38]: > 100 µM | TGI [39]: 94.1 µM | TGI [40]: > 100 µM | TGI [41]: > 100 µM | TGI [42]: 95.1 µM | TGI [43]: > 100 µM | TGI [44]: 83.8 µM | TGI [45]: > 100 µM | TGI [46]: 88.6 µM | TGI [47]: > 100 µM | TGI [48]: > 100 µM | TGI [49]: 58.1 µM | TGI [50]: 49.9 µM | TGI [51]: > 100 µM | TGI [52]: 63.5 µM | TGI [53]: > 100 µM | TGI [54]: 61.4 µM | TGI [55]: 94.1 µM
